US9000184B2, “Cyclohexane-1,2′-naphthalene-1′,2″-imidazol compounds and their use as BACE inhibitors” (AstraZeneca AB, priority 2012, dated 2015)

Columns and labels:
[1] = tested on: sAPPβ release, SH-SY5Y cells; experiment: sAPPβ release assay; type: cell-based; conditions: 17 h incubation, MSD detection
Method: SH-SY5Y cells were cultured in DMEM/F-12 with Glutamax, 10% FCS and 1% non-essential amino acids and cryopreserved and stored at −140° C. at a concentration of 7.5-9.5×10^6 cells per vial. Thaw cells and seed at a conc. of around 10000 cells/well in DMEM/F-12 with Glutamax, 10% FCS and 1% non-essential amino acids to a 384-well tissue culture treated plate, […] cell susp/well. The cell plates were then incubated for 7-24 h at 37° C., 5% CO2. The cell medium was removed, followed by addition of 30 μL compound diluted in DMEM/F-12 with Glutamax, 10% FCS, 1% non-essential amino acids and 1% PeSt to a final conc. of 1% DMSO. The compounds were incubated with the cells for 17 h (overnight) at 37° C., 5% CO2. Meso Scale Discovery (MSD) plates were used for the detection of sAPPβ release. MSD sAPPβ plates were blocked in 1% BSA in Tris wash buffer (40 μL/well) for 1 h on shake at r.t. and washed 1 time in Tris wash buffer (40 μL/well). 20 μL of medium was transferred to the pre-blocked and washed MSD sAPPβ microplates, and the cell plates were further used in an ATP assay to measure cytotoxicity. The MSD plates were incubated with shaking at r.t. for 2 h and the media discarded. 10 μL detection antibody was added (1 nM) per well followed by incubation with shaking at r.t. for 2 h and then discarded. 40 μL Read Buffer was added per well and the plates were read in a SECTOR Imager.

[2] = biological target: T1, human β-Secretase (Homo sapiens (Human), UniProt P56817); experiment: TR-FRET assay; type: biochemical; conditions: sBACE-Fc 2.7 μg/ml, substrate 100 nM, pH 4.5, 15 minutes at RT
Method: The β-secretase enzyme used in the TR-FRET is prepared as follows:
(§1) The cDNA for the soluble part of the human β-Secretase (AA 1-AA 460) was cloned using the ASP2-Fc10-1-IRES-GFP-neoK mammalian expression vector. The gene was fused to the Fc domain of IgG1 (affinity tag) and stably cloned into HEK 293 cells.
(§2) The enzyme (truncated form) was diluted to 6 μg/mL (stock 1.3 mg/mL) and the TruPoint BACE1 Substrate to 200 nM (stock 120 μM) in reaction buffer (NaAcetate, chaps, triton x-100, EDTA pH4.5). Enzyme and compound in dimethylsulphoxide (final DMSO concentration 5%) was mixed and pre-incubated for 10 minutes at RT. Substrate was then added and the reaction was incubated for 15 minutes at RT. The reaction was stopped with the addition of 0.35 vol Stop solution (NaAcetate, pH 9). The fluorescence of the product was measured on a Victor II plate reader with excitation wavelengths of 340-485 nm and emission wavelengths of 590-615 nm. […] The dimethylsulphoxide control, instead of test compound, defined the 100% activity level and 0% activity was defined by wells lacking enzyme (replaced with reaction buffer) or by a saturating dose of a known inhibitor, 2-amino-6-[3-(3-methoxyphenyl)phenyl]-3,6-dimethyl-5H-pyrimidin-4-one.

[3] = biological target: T1, human β-Secretase; experiment: Diluted TR-FRET assay; type: biochemical; conditions: footnote a: diluted FRET assay, 50 times less enzyme, 6.5 h reaction time at r.t.; read-out: IC50 in TR-FRET assay (IC50 from the diluted FRET assay)
Method: as §1, §2
Compounds with a high affinity were further tested in a diluted TR-FRET assay, conditions as described above for the TR-FRET assay, but with 50 times less enzyme and a 6.5 h long reaction time at r.t. in the dark.

T1 sequence (P56817 22-460): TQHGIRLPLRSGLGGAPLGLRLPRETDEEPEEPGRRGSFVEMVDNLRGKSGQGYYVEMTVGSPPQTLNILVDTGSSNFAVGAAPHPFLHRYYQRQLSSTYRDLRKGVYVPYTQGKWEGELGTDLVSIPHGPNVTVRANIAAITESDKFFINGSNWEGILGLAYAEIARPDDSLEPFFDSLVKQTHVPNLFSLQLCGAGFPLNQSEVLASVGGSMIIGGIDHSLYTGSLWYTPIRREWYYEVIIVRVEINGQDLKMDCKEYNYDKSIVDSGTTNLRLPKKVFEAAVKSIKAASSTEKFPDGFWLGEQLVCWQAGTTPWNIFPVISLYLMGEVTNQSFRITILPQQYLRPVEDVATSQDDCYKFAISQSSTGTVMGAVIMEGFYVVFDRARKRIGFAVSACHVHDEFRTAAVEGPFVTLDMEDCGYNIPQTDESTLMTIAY

SMILES	IC50 [1]	IC50 [2]	IC50 [3]	IC50 ([1]; Homo sapiens)
CO[C@H]1CC[C@@]2(CCc3ccc(Br)cc3C23N=C(C)C(N)=N3)CC1 (single isomer, unassigned; isomer 1) [5, isomer 1]	0.078 µM	0.411 µM		
COc1cc(C#N)cc(-c2ccc3c(c2)C2(N=C(C)C(N)=N2)[C@]2(CC3)CC[C@@H](OC)CC2)c1 (single isomer, unassigned; isomer 1) [6, isomer 1]	0.001 µM		0.005 µM	
CO[C@H]1CC[C@@]2(CCc3ccc(-c4cncc(Cl)c4)cc3C23N=C(C)C(N)=N3)CC1 (single isomer, unassigned; isomer 1) [7, isomer 1]	0.0025 µM		0.014 µM	
CC#Cc1cncc(-c2ccc3c(c2)C2(N=C(C)C(N)=N2)[C@]2(CC3)CC[C@H](OC)CC2)c1 (single isomer, unassigned; isomer 1) [8, isomer 1]	0.081 µM	0.212 µM		
COC1CCC2(CCc3ccc(-c4cc(Cl)cc(C#N)c4)cc3C23N=C(C)C(N)=N3)CC1 (single isomer, unassigned; isomer 1) [10, isomer 1]	0.0031 µM		0.0057 µM	
CO[C@H]1CC[C@]2(CCc3ccc(-c4cc(Cl)cc(C#N)c4)cc3C23N=C(C)C(N)=N3)CC1 (single isomer, unassigned; isomer 1) [11, isomer 1]	0.0045 µM		0.0036 µM	
CO[C@H]1CC[C@]2(CCc3ccc(Br)cc3C23N=C(C)C(N)=N3)CC1 (single isomer, unassigned; isomer 2) [5, isomer 2]		8.92 µM		
COc1cc(C#N)cc(-c2ccc3c(c2)C2(N=C(C)C(N)=N2)[C@]2(CC3)CC[C@H](OC)CC2)c1 (single isomer, unassigned; isomer 2) [6, isomer 2]	0.08 µM	0.587 µM		
CO[C@H]1CC[C@]2(CCc3ccc(-c4cncc(Cl)c4)cc3C23N=C(C)C(N)=N3)CC1 (single isomer, unassigned; isomer 2) [7, isomer 2]	0.019 µM	0.333 µM		
CC#Cc1cncc(-c2ccc3c(c2)C2(N=C(C)C(N)=N2)[C@]2(CC3)CC[C@@H](OC)CC2)c1 (single isomer, unassigned; isomer 2) [8, isomer 2]	0.0024 µM	0.019 µM		
CO[C@H]1CC[C@@]2(CCc3ccc(-c4cc(Cl)cc(C#N)c4)cc3C23N=C(C)C(N)=N3)CC1 (single isomer, unassigned; isomer 2) [10, isomer 2]	0.092 µM	0.392 µM		
CO[C@H]1CC[C@@]2(CCc3ccc(-c4cc(Cl)cc(C#N)c4)cc3[C@@]23N=C(C)C(N)=N3)CC1 (single isomer, unassigned; isomer 2) [11, isomer 2]		> 5 µM		
CC1=NC2(N=C1N)c1cc(-c3cc(F)cc(C#N)c3)ccc1CCC21CC1 (centres unmarked) [Example 2, 3-(4″-Amino-5″-methyl-3′,4′-dihydrodispiro[cyclopropane-1,2′-naphthalene-1′,2″-imidazol]-7′-yl)-5-fluorobenzonitrile]		0.079 µM		0.023 µM
CC1=NC2(N=C1N)c1cc(-c3cc(F)cc(F)c3)ccc1CCC21CC1 (centres unmarked) [Example 3, 7′-(3,5-Difluorophenyl)-5″-methyl-3′,4′-dihydrodispiro[cyclopropane-1,2′-naphthalene-1′,2″-imidazol]-4″-amine]		0.13 µM		0.118 µM
CC1=NC2(N=C1N)c1cc(-c3cncc(Cl)c3)ccc1CCC21CC1 (centres unmarked) [Example 4, 7′-(5-Chloropyridin-3-yl)-5″-methyl-3′,4′-dihydrodispiro[cyclopropane-1,2′-naphthalene-1′,2″-imidazol]-4″-amine]				0.011 µM
CC1=NC2(N=C1N)c1cc(-c3cc(Cl)cc(C#N)c3)ccc1CCC21CC1 (centres unmarked) [Example 9, 3-(4″-Amino-5″-methyl-3′,4′-dihydrodispiro[cyclopropane-1,2′-naphthalene-1′,2″-imidazol]-7′-yl)-5-chlorobenzonitrile]			0.015 µM	0.016 µM
